Patent US9951028B2, “Agricultural chemicals” (REDAG CROP PROTECTION LTD, priority 2013, dated 2018)

Tests used:
[1] = system: garden cress, Lepidium sativum; assay: Herbicidal efficacy screen, potter tower spray, necrosis assessed; type: in vivo
Experimental: (§1) Compounds 22, 23 and 24 were screened for herbicidal efficacy against target plants: garden cress, Lepidium sativum, common chickweed, Stellaria media, and white mustard […] alba Plants were obtained as seeds and were grown to the 2-4 true leaf stage. Plants were grown under laboratory conditions, individually in seed trays. Each plant (in an approximately 3 cm diameter plug) was then detached from the tray for spraying. The compounds were screened at a range of five concentrations, diluted in acetone and TweenTM. A carrier only control was also conducted. Treatments were applied directly onto the plants, using a potter tower, at a specified application rate. One plant of each species was sprayed using a potter tower. The 3 different types of plants were placed on a 10 cm diameter platform directly beneath the potter sprayer and sprayed simultaneously. The growth of the plants and any Phytotoxicity effects were then assessed at intervals over 21 days, according to EPPO guideline PP1/135. Five replicas were performed for each treatment, for each species. In the tables below C represents a percentage increase in necrosis relative to the control of 0.1-50; B represents a percentage inhibition of 50-80; and A represents a percentage inhibition of 80-100.

[2] = system: common chickweed, Stellaria media; assay: as above; type: in vivo
Experimental: as §1

[3] = 12.5 g/ha, day 3 post application
[4] = 12.5 g/ha, day 4 post application
[5] = 12.5 g/ha, day 5 post application
[6] = 12.5 g/ha, day 7 post application
[7] = 12.5 g/ha, day 10 post application
[8] = 25 g/ha, day 1 post application
[9] = 25 g/ha, day 2 post application
[10] = 25 g/ha, day 3 post application
[11] = 25 g/ha, day 4 post application
[12] = 25 g/ha, day 5 post application
[13] = 25 g/ha, day 7 post application
[14] = 25 g/ha, day 10 post application
[15] = 50 g/ha, day 1 post application
[16] = 50 g/ha, day 2 post application
[17] = 50 g/ha, day 3 post application
[18] = 50 g/ha, day 4 post application
[19] = 50 g/ha, day 5 post application
[20] = 50 g/ha, day 7 post application
[21] = 50 g/ha, day 10 post application
[22] = 100 g/ha, day 1 post application
[23] = 100 g/ha, day 2 post application
[24] = 100 g/ha, day 3 post application
[25] = 100 g/ha, day 4 post application
[26] = 100 g/ha, day 5 post application
[27] = 100 g/ha, day 7 post application
[28] = 100 g/ha, day 10 post application
[29] = 200 g/ha, day 1 post application
[30] = 200 g/ha, day 2 post application
[31] = 200 g/ha, day 3 post application
[32] = 200 g/ha, day 4 post application
[33] = 200 g/ha, day 5 post application
[34] = 200 g/ha, day 7 post application
[35] = 200 g/ha, day 10 post application

Q: `CC(C)C(C)S(=O)(=O)NCc1cc(-n2c(=O)cc(C(F)(F)F)n(C)c2=O)c(F)cc1Cl` (centres unmarked) [Compound 24, N-[[2-Chloro-4-fluoro-5-[3-methyl-2,6-dioxo-4-(trifluoromethyl)pyrimidin-1-yl]phenyl]methyl]-3-methyl-butane-2-sulfonamide] was tested. Which Average of necrosis [1, 3] did it give?
A: C (C represents a percentage increase in necrosis relative to the control of 0.1-50)

Q: And the Average of necrosis [1, 4]?
A: C (C represents a percentage increase in necrosis relative to the control of 0.1-50)

Q: And the Average of necrosis [1, 5]?
A: C (C represents a percentage increase in necrosis relative to the control of 0.1-50)

Q: What about the Average of necrosis [1, 6] of the same compound?
A: C (C represents a percentage increase in necrosis relative to the control of 0.1-50)

Q: And the Average of necrosis [1, 7]?
A: B (B represents a percentage inhibition of 50-80)

Q: What about the Average of necrosis [1, 8] of the same compound?
A: C (C represents a percentage increase in necrosis relative to the control of 0.1-50)

Q: And the Average of necrosis [1, 9]?
A: C (C represents a percentage increase in necrosis relative to the control of 0.1-50)

Q: And the Average of necrosis [1, 10]?
A: C (C represents a percentage increase in necrosis relative to the control of 0.1-50)

Q: What about the Average of necrosis [1, 11] of the same compound?
A: C (C represents a percentage increase in necrosis relative to the control of 0.1-50)

Q: What about the Average of necrosis [1, 12] of the same compound?
A: C (C represents a percentage increase in necrosis relative to the control of 0.1-50)

Q: What about the Average of necrosis [1, 13] of the same compound?
A: C (C represents a percentage increase in necrosis relative to the control of 0.1-50)

Q: And the Average of necrosis [1, 14]?
A: C (C represents a percentage increase in necrosis relative to the control of 0.1-50)

Q: What about the Average of necrosis [1, 15] of the same compound?
A: C (C represents a percentage increase in necrosis relative to the control of 0.1-50)

Q: What about the Average of necrosis [1, 16] of the same compound?
A: C (C represents a percentage increase in necrosis relative to the control of 0.1-50)

Q: And the Average of necrosis [1, 17]?
A: B (B represents a percentage inhibition of 50-80)

Q: What about the Average of necrosis [1, 18] of the same compound?
A: B (B represents a percentage inhibition of 50-80)

Q: And the Average of necrosis [1, 19]?
A: B (B represents a percentage inhibition of 50-80)

Q: What about the Average of necrosis [1, 20] of the same compound?
A: A (A represents a percentage inhibition of 80-100)

Q: And the Average of necrosis [1, 21]?
A: A (A represents a percentage inhibition of 80-100)

Q: And the Average of necrosis [1, 22]?
A: C (C represents a percentage increase in necrosis relative to the control of 0.1-50)

Q: And the Average of necrosis [1, 23]?
A: C (C represents a percentage increase in necrosis relative to the control of 0.1-50)

Q: What about the Average of necrosis [1, 24] of the same compound?
A: C (C represents a percentage increase in necrosis relative to the control of 0.1-50)

Q: What about the Average of necrosis [1, 25] of the same compound?
A: B (B represents a percentage inhibition of 50-80)

Q: What about the Average of necrosis [1, 26] of the same compound?
A: B (B represents a percentage inhibition of 50-80)

Q: What about the Average of necrosis [1, 27] of the same compound?
A: B (B represents a percentage inhibition of 50-80)

Q: And the Average of necrosis [1, 28]?
A: B (B represents a percentage inhibition of 50-80)

Q: What about the Average of necrosis [1, 29] of the same compound?
A: C (C represents a percentage increase in necrosis relative to the control of 0.1-50)

Q: What about the Average of necrosis [1, 30] of the same compound?
A: C (C represents a percentage increase in necrosis relative to the control of 0.1-50)

Q: What about the Average of necrosis [1, 31] of the same compound?
A: C (C represents a percentage increase in necrosis relative to the control of 0.1-50)

Q: What about the Average of necrosis [1, 32] of the same compound?
A: C (C represents a percentage increase in necrosis relative to the control of 0.1-50)

Q: What about the Average of necrosis [1, 33] of the same compound?
A: C (C represents a percentage increase in necrosis relative to the control of 0.1-50)

Q: What about the Average of necrosis [1, 34] of the same compound?
A: C (C represents a percentage increase in necrosis relative to the control of 0.1-50)

Q: And the Average of necrosis [1, 35]?
A: B (B represents a percentage inhibition of 50-80)

Q: And the Average of necrosis ([2]; 12.5 g/ha, day 1 post application)?
A: C (C represents a percentage increase in necrosis relative to the control of 0.1-50)

Q: What about the Average of necrosis ([2]; 12.5 g/ha, day 2 post application) of the same compound?
A: C (C represents a percentage increase in necrosis relative to the control of 0.1-50)

Q: And the Average of necrosis [2, 3]?
A: C (C represents a percentage increase in necrosis relative to the control of 0.1-50)

Q: What about the Average of necrosis [2, 4] of the same compound?
A: C (C represents a percentage increase in necrosis relative to the control of 0.1-50)

Q: And the Average of necrosis [2, 5]?
A: C (C represents a percentage increase in necrosis relative to the control of 0.1-50)

Q: What about the Average of necrosis [2, 6] of the same compound?
A: C (C represents a percentage increase in necrosis relative to the control of 0.1-50)

Q: What about the Average of necrosis [2, 7] of the same compound?
A: C (C represents a percentage increase in necrosis relative to the control of 0.1-50)

Q: And the Average of necrosis [2, 8]?
A: C (C represents a percentage increase in necrosis relative to the control of 0.1-50)

Q: And the Average of necrosis [2, 9]?
A: C (C represents a percentage increase in necrosis relative to the control of 0.1-50)

Q: What about the Average of necrosis [2, 10] of the same compound?
A: C (C represents a percentage increase in necrosis relative to the control of 0.1-50)

Q: And the Average of necrosis [2, 11]?
A: C (C represents a percentage increase in necrosis relative to the control of 0.1-50)

Q: What about the Average of necrosis [2, 12] of the same compound?
A: C (C represents a percentage increase in necrosis relative to the control of 0.1-50)

Q: And the Average of necrosis [2, 13]?
A: C (C represents a percentage increase in necrosis relative to the control of 0.1-50)

Q: What about the Average of necrosis [2, 14] of the same compound?
A: C (C represents a percentage increase in necrosis relative to the control of 0.1-50)

Q: And the Average of necrosis [2, 15]?
A: C (C represents a percentage increase in necrosis relative to the control of 0.1-50)

Q: What about the Average of necrosis [2, 16] of the same compound?
A: C (C represents a percentage increase in necrosis relative to the control of 0.1-50)

Q: What about the Average of necrosis [2, 17] of the same compound?
A: C (C represents a percentage increase in necrosis relative to the control of 0.1-50)

Q: What about the Average of necrosis [2, 18] of the same compound?
A: C (C represents a percentage increase in necrosis relative to the control of 0.1-50)

Q: What about the Average of necrosis [2, 19] of the same compound?
A: A (A represents a percentage inhibition of 80-100)

Q: What about the Average of necrosis [2, 20] of the same compound?
A: A (A represents a percentage inhibition of 80-100)

Q: And the Average of necrosis [2, 21]?
A: A (A represents a percentage inhibition of 80-100)

Q: And the Average of necrosis [2, 22]?
A: C (C represents a percentage increase in necrosis relative to the control of 0.1-50)

Q: What about the Average of necrosis [2, 23] of the same compound?
A: C (C represents a percentage increase in necrosis relative to the control of 0.1-50)

Q: And the Average of necrosis [2, 24]?
A: C (C represents a percentage increase in necrosis relative to the control of 0.1-50)

Q: And the Average of necrosis [2, 25]?
A: B (B represents a percentage inhibition of 50-80)

Q: And the Average of necrosis [2, 26]?
A: B (B represents a percentage inhibition of 50-80)

Q: What about the Average of necrosis [2, 27] of the same compound?
A: B (B represents a percentage inhibition of 50-80)

Q: And the Average of necrosis [2, 28]?
A: A (A represents a percentage inhibition of 80-100)

Q: What about the Average of necrosis [2, 29] of the same compound?
A: C (C represents a percentage increase in necrosis relative to the control of 0.1-50)

Q: And the Average of necrosis [2, 30]?
A: C (C represents a percentage increase in necrosis relative to the control of 0.1-50)

Q: And the Average of necrosis [2, 31]?
A: C (C represents a percentage increase in necrosis relative to the control of 0.1-50)

Q: And the Average of necrosis [2, 32]?
A: C (C represents a percentage increase in necrosis relative to the control of 0.1-50)

Q: And the Average of necrosis [2, 33]?
A: A (A represents a percentage inhibition of 80-100)

Q: And the Average of necrosis [2, 34]?
A: A (A represents a percentage inhibition of 80-100)

Q: And the Average of necrosis [2, 35]?
A: A (A represents a percentage inhibition of 80-100)
